Measurements published in patent US10934295B2, “Antimicrobials and methods of making and using same” (BIOVERSYS AG, priority 2016, dated 2021).

Tests used:
E. coli strain ATCC25922 = assay: standard microdilution assay, minimum inhibitory concentration (MIC); type: cell-based; conditions: Escherichia coli
Method: (§1) The in vitro activity of the compounds of the present disclosure can be determined. Antimicrobial testing is typically performed to determine the minimum inhibitory concentration (MIC). Minimum inhibitory concentrations (MICs) are determined by the microdilution method in a final volume of 100 μl according to protocols outlined by The Clinical and Laboratory Standards Institute (CLSI). Performance standards for reference strains are assessed within the same experimental design to maintain quality control. See, for example, Clinical Laboratory Standards Institute: Methods for dilution antimicrobial susceptibility tests for bacteria that grow aerobically M7-A8. Approved Standard-Eighth Edition. Wayne, Pa.: CLSI; December 2008; and Clinical Laboratory Standards Institute: Performance Standards for Antimicrobial Susceptibility Testing M100-S20; Approved Standard-Twentieth Edition. Wayne, Pa.: CLSI; June 2010. The compounds of the present disclosure were tested for antimicrobial activity. The Compounds 1-32 were run against Eschericia colt (E. coli) strain ATCC25922 and against Staphylococcus aureus (S. aureus) 11540 strain using a standard microdilution assay to determine minimum inhibitory concentrations (MICs). […] It will be recognized by one skilled in the art that the compounds can be assessed against other bacterial organisms and that the presentation of data for activity against Eschericia colt and Staphylococcus aureus are illustrative and in no way is intended to limit the scope of the present disclosure. The compounds of the present disclosure can be assayed against a range of other microorganisms depending upon the performance activity desired to be gathered. Furthermore, the “+” and “−” representation and the selection of a cutoff value of 16 micrograms/mL is also illustrative and in no way is intended to limit the scope of the present disclosure.

[1] = tested on: Staphylococcus aureus (S. aureus) 11540 strain; assay: as above; type: cell-based
Method: as §1

| SMILES | MIC (E. coli strain ATCC25922) [µg/mL] | MIC [1] [µg/mL] |
| --- | --- | --- |
| C=C[C@@H](CCNC(=N)N)NC(=O)c1ccc(-n2cc3cc(-c4cc(CCC[C@H](C)N)cc(Cl)c4F)[nH]c3nc2=O)cc1 [Compound 20] | ≤ 16 | ≤ 16 |
| C[C@H](N)CCCc1cc(Cl)c(F)c(-c2cc3cn(-c4ccc(CO[C@H](CCNC(=N)N)CNC(=N)N)c(F)c4)c(=O)nc3[nH]2)c1 [Compound 30] | ≤ 16 | ≤ 16 |
| C[C@H](N)CCCc1cc(Cl)c(F)c(-c2cc3cn(-c4ccc([C@H]5CNC[C@@H](CCNC(=N)N)N5)cc4)c(=O)nc3[nH]2)c1 [Compound 17] | ≤ 16 | ≤ 16 |
| CSc1cc(-n2cc3cc(-c4cc(CCC[C@H](C)N)cc(Cl)c4F)[nH]c3nc2=O)ccc1CO[C@H](CCNC(=N)N)CNC(=N)N [Compound 31] | ≤ 16 | ≤ 16 |
| N=C(N)NCC[C@@H]1CSC[C@@H](c2ccc(-n3cc4cc(-c5cc(CCC[C@@H](N)C6CC6)cc(Cl)c5F)[nH]c4nc3=O)cc2)N1 [Compound 29] | ≤ 16 | ≤ 16 |
| CNC(=O)Cc1cc(-n2cc3cc(-c4cc(CCC[C@H](C)N)cc(Cl)c4F)[nH]c3nc2=O)ccc1CN[C@@H](C)CCNC(=N)N [Compound 2] | ≤ 16 | ≤ 16 |
| C[C@H](N)CCCc1cc(Cl)c(F)c(-c2cc3cn(-c4ccc([C@@H]5CNC[C@@H](CCNC(=N)N)O5)cc4)c(=O)nc3[nH]2)c1 [Compound 14] | ≤ 16 | ≤ 16 |
| C[C@H](N)CCCc1cc(Cl)c(F)c(-c2cc3cn(-c4ccc(C(=O)N[C@@H](CN)CCNC(=N)N)cc4)c(=O)nc3[nH]2)c1 [Compound 25] | ≤ 16 | ≤ 16 |
| C[C@H](N)CCCc1cc(Cl)c(F)c(-c2cc3cn(-c4ccc(C(=O)N[C@@H](CO)CCNC(=N)N)cc4)c(=O)nc3[nH]2)c1 [Compound 10] | ≤ 16 | ≤ 16 |
| C[C@H](N)CCCc1cc(Cl)c(F)c(-c2cc3cn(-c4ccc([C@@H]5CNC[C@@H](CCNC(=N)N)N5)cc4)c(=O)nc3[nH]2)c1 [Compound 23] | ≤ 16 | ≤ 16 |
| C[C@H](N)CCCc1cc(Cl)c(F)c(-c2cc3cn(-c4ccc([C@H]5CNC[C@H](CCNC(=N)N)N5)cc4)c(=O)nc3[nH]2)c1 [Compound 18] | ≤ 16 | ≤ 16 |
| C[C@H](N)CCCc1cc(Cl)c(F)c(-c2cc3cn(-c4ccc([C@@H]5CNC[C@H](CCNC(=N)N)N5)cc4)c(=O)nc3[nH]2)c1 [Compound 22] | ≤ 16 | ≤ 16 |
| C[C@H](N)CCCc1cc(Cl)c(F)c(-c2cc3cn(-c4ccc(N5CCNC(CCNC(=N)N)C5)cc4)c(=O)nc3[nH]2)c1 (stereo partly drawn) [Compound 7] | ≤ 16 | ≤ 16 |
| C[C@H](N)CCCc1cc(Cl)c(F)c(-c2cc3cn(-c4ccc(CN[C@@H](C)CCNC(=N)N)c(N(C)C)c4)c(=O)nc3[nH]2)c1 [Compound 11] | ≤ 16 | ≤ 16 |
| C[C@H](N)CCCc1cc(Cl)c(F)c(-c2cc3cn(-c4ccc(C(=O)N[C@H](CCNC(=N)N)CNC(=N)N)cc4)c(=O)nc3[nH]2)c1 [Compound 19] | ≤ 16 | ≤ 16 |
| C[C@H](N)CCCc1cc(Cl)c(F)c(-c2cc3cn(-c4ccc(C(=O)N[C@@H](C)CCNC(=N)N)cc4)c(=O)nc3[nH]2)c1 [Compound 9] | ≤ 16 | ≤ 16 |
| C[C@H](N)CCCc1cc(Cl)c(F)c(-c2cc3cn(-c4ccc(CN[C@@H](C)CCNC(=N)N)c(N5CCOCC5)c4)c(=O)nc3[nH]2)c1 [Compound 16] | ≤ 16 | ≤ 16 |
| C[C@H](N)CCCc1cc(Cl)c(F)c(-c2cc3cn(-c4ccc([C@@H](NCCCNC(=N)N)C(F)(F)F)cc4)c(=O)nc3[nH]2)c1 [Compound 27] | ≤ 16 | ≤ 16 |
| C[C@H](N)CCCc1cc(Cl)c(F)c(-c2cc3cn(-c4ccc([C@@H]5CNC[C@H](CCNC(=N)N)O5)cc4)c(=O)nc3[nH]2)c1 [Compound 5] | ≤ 16 | ≤ 16 |
| C[C@H](N)CCCc1cc(Cl)c(F)c(-c2cc3cn(-c4ccc(C(=O)N[C@H](CCNC(=N)N)CNc5ccccn5)cc4)c(=O)nc3[nH]2)c1 [Compound 21] | ≤ 16 | ≤ 16 |
| COc1cc(-n2cc3cc(-c4cc(CCC[C@H](C)N)cc(Cl)c4F)[nH]c3nc2=O)ccc1CO[C@H](CCNC(=N)N)CNC(=N)N [Compound 32] | ≤ 16 | ≤ 16 |
| C[C@H](N)CCCc1cc(Cl)c(F)c(-c2cc3cn(-c4ccc(CN[C@@H](C)CCNC(=N)N)c(CC(=O)O)c4)c(=O)nc3[nH]2)c1 [Compound 1] | > 16 | ≤ 16 |
| C[C@H](NCCCNC(=N)N)c1ccc(-n2cc3cc(-c4cc(CCC[C@@H](N)C(F)(F)F)cc(Cl)c4F)[nH]c3nc2=O)cc1 [Compound 26] | > 16 | ≤ 16 |
| C[C@H](N)CCCc1cc(Cl)c(F)c(-c2cc3cn(-c4cc(F)c(CO[C@H](CCNC(=N)N)CNC(=N)N)c(F)c4)c(=O)nc3[nH]2)c1 [Compound 56] | ≤ 16 | ≤ 16 |
| C[C@H](N)CCCc1cc(Cl)c(F)c(-c2cc3cn(-c4ccc(CN[C@@H](C)CCNC(=N)N)c([N+](=O)[O-])c4)c(=O)nc3[nH]2)c1 [Compound 8] | ≤ 16 | ≤ 16 |
| C[C@H](N)CCCc1cc(Cl)c(F)c(-c2cc3cn(-c4ccc(CN[C@@H](C)CCNC(=N)N)c(S(C)(=O)=O)c4)c(=O)nc3[nH]2)c1 [Compound 6] | ≤ 16 | ≤ 16 |
| COCCOCc1cc(-n2cc3cc(-c4cc(CCC[C@H](C)N)cc(Cl)c4F)[nH]c3nc2=O)ccc1CN[C@@H](C)CCNC(=N)N [Compound 12] | ≤ 16 | ≤ 16 |
| C[C@H](N)CCCc1cc(Cl)c(F)c(-c2cc3cn(-c4ccc(C(=O)N[C@H](CCNC(=N)N)CNc5ncc[nH]5)cc4)c(=O)nc3[nH]2)c1 [Compound 15] | ≤ 16 | ≤ 16 |
| C[C@H](N)CCCc1cc(Cl)c(F)c(-c2cc3cn(-c4ccc([C@@H](NCCCNC(=N)N)C(F)F)cc4)c(=O)nc3[nH]2)c1 [Compound 28] | ≤ 16 | ≤ 16 |
| CSC[C@@H](CCNC(=N)N)NCc1ccc(-n2cc3cc(-c4cc(CCC[C@H](C)N)cc(Cl)c4F)[nH]c3nc2=O)cc1 [Compound 24] | ≤ 16 | ≤ 16 |
